The values below are quoted from earlier work in patent US9517201B2, “Nanocarrier and nanogel compositions” (RUTGERS, THE STATE UNIVERSITY OF NEW JERSEY, priority 2008, dated 2016).

Structures are written as SMILES. Where a name gives a salt, the structure may show the parent alone.

Consider `COc1cccc2c1C(=O)c1c(O)c3c(c(O)c1C2=O)C[C@@](O)(C(=O)CO)C[C@@H]3O[C@H]1C[C@H](N)[C@H](O)[C@H](C)O1` [Doxorubicin Hydrochloride, Doxorubicin hydrochloride], for which the “solubility of Doxorubicin Hydrochloride in water” value was approximately 10 mg/mL.
